This note sets out measurements from patent publication US12404332B2, “Methods for diagnosing and treating cancers” (Research Development Foundation, priority 2020, dated 2025).

For experiment [1], the system named is B16 tumors. Nature of the experiment: B16 tumor challenge in mice treated with chlorambucil. Format: in vivo, mouse. An excerpt: Mice and in vivo treatments: Wild-type (WT) C57BL/6 mice NSG were purchased from Jackson Labs (Bar Harbor, ME), bred in our animal facility and used at 7-20 weeks old. All mice were given ad libitum water and food and housed under specific pathogen-free conditions. Mice used here were matched for sex and age in each experiment. 1×10^5 control or PD-L1^KOB16 cells were given subcutaneously (SQ, both sexes). 4×10^6 control or PD-L1^lo ID8agg cells in log growth phase were given intraperitoneally (females only). B16 tumor growth was measured with Vernier calipers and volume was calculated as (length×width^2)/2. Intraperitoneal ID8agg tumor growth was determined by IVIS Lumina Imaging System (Perkin Elmer; Waltham, MA) 15 minutes after i.p. injection of 3 mg of PBS-dissolved d-luciferin K+ (Gold Biotechnology; St. Louis, MO) with 30 second exposures, medium binning, and F/stop=1. Identical regions of interest were drawn over each subject's abdomen and average radiance (photons/see/cm2/sr) was quantified with Living Image software version 4.2. Body weight was measured every week for PD-L1^lo ID8agg mice as a surrogate for tumor growth, and tumors were weighed at end-experiment in confirmation. Survival was determined as >1500 mm^3 for SQ tumors and distress or >20% mouse weight gain for PD-L1^lo ID8agg tumors. […]

In experiment [2] the test system is PD-L1 in OVCAR5 cells. As to the kind of experiment: PD-L1 mRNA, protein and ubiquitination in OVCAR5 cells. The format is cell-based, human. How it is done:
FIGS. 39A-C: CAMB reduces PD-L1 through ubiquitination. FIG. 39A, RT-qPCR for PD-L1 mRNA in OVCAR5 and ID8agg cells treated with (+) or without (−) chlorambucil for 48 hours. (n=4). FIG. 39B, Western blot for PD-L1 protein in OVCAR5 cells with (+) or without (−) MG132 for 6 or 20 hours. (upper panel). PD-L1 expression in OVCAR5 cells treated with chlorambucil 48 hours and/or MG132 for 6 hours (lower panel). FIG. 39C, Ubiquitinated PD-L1 was immunoprecipitated (IP) and subjected to Western blot analysis with anti-ubiquitin (Ub) antibody. Cells were treated with chlorambucil for indicated times prior to ubiquitination analysis.
Western blotting and immunoprecipitation: To prepare whole cell lysates, cells were harvested and lysed in RIPA (radioimmunoprecipitation assay) buffer plus 1 mM phenylmethylsulphonyl fluoride and Halt protease/phosphatase inhibitor cocktail (Thermo Scientific) at 4° C. Protein concentrations were measured by BCA Protein Assay Kit (Thermo Scientific). Protein was run on precast 4-15% sodium dodecyl sulfate polyacrylamide gels (Bio-Rad), transferred to polyvinylidene fluoride membranes (GE Water and Process Technologies), and then blocked in 5% non-fat milk for 1 hour at room temperature. The membranes were then incubated with 1:1000 diluted primary antibodies against indicated proteins (Cell Signaling). Specific antibody binding was detected by chemiluminescence using Western Lightening Plus regent (Perkin Elmer). Cells for (co) immunoprecipitation experiments were seeded in 15-cm dishes and cultured as described, using 6 million cells per immunoprecipitation reaction. For protein ubiquitination, cells were lysed in denaturing buffer (50 mM Tris-HCl, 0.5 mM EDTA and 1% SDS) followed by heating at 95° C. for 10 minutes and then quenched with 9 volumes of quenching buffer (0.5% Triton X-100, 20 mM Tris-HCl (pH 8.0), 137 mM NaCl, 10% glycerol, 2 mM EDTA). Protease inhibitor cocktail (Roche) was added fresh to all buffers. Cell lysates were incubated on a rotator for 30 minutes at 4° C., and then centrifuged at 20,000 g for 15 minutes at 4° C. Supernatants were subsequently incubated with anti-PD-L1 antibody overnight and processed using Dynabeads Protein G for Immunoprecipitation (Thermo Fisher Scientific). The final eluate was processed and Western blotting was performed.
Quantitative Real-Time Reverse Transcriptase Polymerase Chain Reaction: Total RNA was isolated from homogenized whole lung tissue with Trizol reagent (Invitrogen) according to manufacturer instructions. […] Quantitative PCR (qPCR) was conducted using the Bio-Rad Real-Time PCR System (Applied Biosystems), amplified with transcript-specific primers with SYBR Green (Thermo Scientific), according to manufacturer instructions. […]

Experiment [3] concerns ES2 cells. Nature of the experiment: Tumor-initiating cell (TIC) flow cytometry, ES2 cells. Format: cell-based, human. How it is done: (§1) FIGS. 40A-C: CAMB suppresses mTORC1 signals and reduces TIC numbers. FIG. 40A, Western blots for proteins in the mTORC1 pathway. Cells were treated with chlorambucil as indicated concentration for 48 hours. FIG. 40B, Western blot for LC3I/II to assess autophagy in cell lysates treated±chlorambucil at indicated concentrations. FIG. 40C, Percent of ALDH^hi TIC by flow cytometry of ES2 cells cultured±chlorambucil. Percent CD44^+CD24^+ ID8agg TIC and CD44^+CD133^+CD24^+ B16 TIC detected by flow cytometry.
(§2) Flow cytometry: Mice were sacrificed by cervical dislocation after induction of deep isoflurane anesthesia. ID8agg tumors were collected and cells were stained as described (Derup et al., 2020) using LSR II hardware and analyzed by FACS Diva (BD Bioscience) or Flow Jo software (Flow Jo, LLC). Anti-mouse (clone 10F.9G2) and human (clone 29E.2A3) PD-L1 [both PE/Cy7, Cat #124314 (mouse) 329718 (human)] were matched with isotype control. Apoptosis assessment used Annexin V and propidium iodide (Thermo Scientific) per manufacturer instruction.
For orientation: Flow cytometry measures light scatter and fluorescence of single cells or particles in a stream.

The test system of experiment [4] is B16 cells. Nature of the experiment: Tumor-initiating cell (TIC) flow cytometry, B16 cells. Format: cell-based, mouse. As to the method: as §1, §2
In experiment [5] the test system is ID8agg cells. Nature of the experiment: Tumor-initiating cell (TIC) flow cytometry, ID8agg cells. Format: cell-based, mouse.

For the compound `O=C(O)CCCc1ccc(N(CCCl)CCCl)cc1` [chlorambucil], the “treatment efficacy in PD-L1^KO B16 challenge” value in experiment [1] (WT mice) is reported as “significantly reduced”. Besides, in experiment [1] (severely immunodeficient NSG mice, B16), the treatment of tumors result was “effectively treated both”. In addition, the “amount of ubiquitinated PD-L1” value in experiment [2] (Co-IP) was “increased”. In experiment [2] (OVCAR5 cells), the “PD-L1 mRNA” value is recorded as “little changed”. For the same compound, the “ALDH^hi TIC population” value in experiment [3] is “significantly reduced”. The “CD44^+CD24^+ TIC population” value in experiment [4] was “significantly reduced”. The “CD44^+CD133^+CD24^+ TIC population” value in experiment [5] is “significantly reduced”.
